Reference: article PMC7587356, “High-Throughput Screening for Inhibitors of the SARS-CoV-2 Protease Using a FRET-Biosensor” (Molecules, 2020)
Where two headings read alike, the source gives them in different places.

What was measured:
SARS-CoV-2 3CLpro [1] = target: T1, SARS-CoV-2 3CLpro (Severe acute respiratory syndrome coronavirus 2, UniProt P0DTD1); experiment: biochemical; assay type: biochemical
SARS-CoV-2 3CLpro [2] = target: T1, SARS-CoV-2 3CLpro; experiment: biochemical; assay type: biochemical; conditions: for inhibition at 5 µM: 4 h
[3] = with 0.01% Triton X-100; mean ± SD of triplicate; 4 h, 30 °C; read-out: A) EC50 with Triton X-100
[4] = without Triton X-100; mean ± SD of triplicate; 4 h, 30 °C; read-out: B) EC50 without Triton X-100
[5] = sheet LOPAC_screen_w_protease, primary screen at 5 µM, mean of two replicates, read-out: mean (LOPAC screen with protease)
[6] = sheet LOPAC_screen_w_protease, primary screen at 5 µM, replicate 1, read-out: Replicate_1 (LOPAC screen with protease)
[7] = sheet LOPAC_screen_w_protease, primary screen at 5 µM, replicate 2, read-out: Replicate_2 (LOPAC screen with protease)
[8] = read-out: Replicate_1 (LOPAC screen with protease)
[9] = read-out: Replicate_2 (LOPAC screen with protease)
[10] = read-out: mean (LOPAC screen with protease)
[11] = sheet LOPAC_screen_w_protease, primary screen at 5 µM, mean of two replicates
[12] = sheet LOPAC_screen_w_protease, primary screen at 5 µM, replicate 1
[13] = sheet LOPAC_screen_w_protease, primary screen at 5 µM, replicate 2
[14] = with 0.01% Triton X-100, read-out: EC50
[15] = EC50 with Triton X-100 / EC50 without Triton X-100, ratio greater than 2 suggests aggregation-based inhibitor

| Compound | Ratio (A/B) (SARS-CoV-2 3CLpro [1]) | EC50 (SARS-CoV-2 3CLpro [1]; [3]) | EC50 (SARS-CoV-2 3CLpro [1]; [4]) | mean (LOPAC screen with protease) (SARS-CoV-2 3CLpro [2]; [11]) | Replicate_1 (LOPAC screen with protease) (SARS-CoV-2 3CLpro [2]; [12]) | Replicate_2 (LOPAC screen with protease) (SARS-CoV-2 3CLpro [2]; [13]) | also measured |
| --- | --- | --- | --- | --- | --- | --- | --- |
| Oc1cc(O)cc(/C=C/c2ccc(O)c(O)c2)c1 [Piceatannol, reference compound] | 1.3 | 0.569 ± 0.075 µM | 0.455 ± 0.113 µM |  |  |  | inhibition at 5 µM (SARS-CoV-2 3CLpro [2]; [5]): 92.3%; inhibition at 5 µM (SARS-CoV-2 3CLpro [2]; [6]): 93.6%; inhibition at 5 µM (SARS-CoV-2 3CLpro [2]; [7]): 91.1% |
| O=C1O/C(=C/Br)CCC1c1cccc2ccccc12 (stereo not shown) [Bromoenol lactone, reference compound] | 1.1 | 0.817 ± 0.121 µM | 0.757 ± 0.073 µM |  |  |  | inhibition at 5 µM (SARS-CoV-2 3CLpro [2]; [8]): 100%; inhibition at 5 µM (SARS-CoV-2 3CLpro [2]; [9]): 99.7%; inhibition at 5 µM (SARS-CoV-2 3CLpro [2]; [10]): 99.9% |
| O=C1C(SCCO)=C(SCCO)C(=O)c2ccccc21 [NSC 95397, reference compound] |  | > 20 µM | > 20 µM | 19.1086 | 20.9168 | 17.3004 |  |
| N[C@@H](CCC(=O)N[C@@H](CSN=O)C(=O)NCC(=O)O)C(=O)O [S-Nitrosoglutathione, reference compound] | 1.5 |  |  |  |  |  | EC50 (SARS-CoV-2 3CLpro [1]; A) EC50 with Triton X-100): 2.29 ± 0.245 µM; EC50 (SARS-CoV-2 3CLpro [1]; B) EC50 without Triton X-100): 1.49 ± 0.627 µM; inhibition at 5 µM (SARS-CoV-2 3CLpro [2]; [8]): 44.1%; inhibition at 5 µM (SARS-CoV-2 3CLpro [2]; [9]): 41.7%; inhibition at 5 µM (SARS-CoV-2 3CLpro [2]; [10]): 42.9% |
| CN(N=O)c1cc(O)ccc1O [Dephostatin, reference compound] | 2.2 | 5.03 ± 1.22 µM | 2.28 ± 0.619 µM |  |  |  | inhibition at 5 µM (SARS-CoV-2 3CLpro [2]; [5]): 35.5%; inhibition at 5 µM (SARS-CoV-2 3CLpro [2]; [6]): 36.5%; inhibition at 5 µM (SARS-CoV-2 3CLpro [2]; [7]): 34.6% |
| N#C/C(=C\c1ccc(O)c(O)c1)C(N)=S [Tyrphostin 47, reference compound] |  | > 20 µM | 15.8 ± 10.1 µM |  |  |  | inhibition at 5 µM (SARS-CoV-2 3CLpro [2]; [5]): 28.2%; inhibition at 5 µM (SARS-CoV-2 3CLpro [2]; [6]): 30.5%; inhibition at 5 µM (SARS-CoV-2 3CLpro [2]; [7]): 25.9% |
| Br.Oc1ccc(C2CNCc3sccc32)cc1O (stereo not shown) [SKF 89626, reference compound] | 1.2 | 3.53 ± 0.565 µM | 2.83 ± 1.97 µM | 42.8167 | 43.262 | 42.3715 |  |
| N#CC(C#N)=C(N)/C(C#N)=C/c1cc(O)c(O)c(O)c1 [Tyrphostin 51, reference compound] | 2.1 | 19 ± 14.2 µM | 9.12 ± 5.3 µM |  |  |  | inhibition at 5 µM (SARS-CoV-2 3CLpro [2]; [8]): 28%; inhibition at 5 µM (SARS-CoV-2 3CLpro [2]; [9]): 28.9%; inhibition at 5 µM (SARS-CoV-2 3CLpro [2]; [10]): 28.5% |
| Cc1c(OCC(F)(F)F)ccnc1C[S+]([O-])c1nc2ccccc2[nH]1 (stereo not shown) [Lansoprazole, reference compound] | 3.9 |  |  | 41.5106 | 48.0924 | 34.9288 | EC50 (SARS-CoV-2 3CLpro [1]; A) EC50 with Triton X-100): 5.72 ± 0.865 µM; EC50 (SARS-CoV-2 3CLpro [1]; B) EC50 without Triton X-100): 1.46 ± 0.398 µM |
| Oc1cc2c(cc1O)CN(C(=S)NCCc1ccc(Cl)cc1)CCC2 [Capsazepine, reference compound] | 1.4 |  |  |  |  |  | EC50 (SARS-CoV-2 3CLpro [1]; A) EC50 with Triton X-100): 0.944 ± 0.098 µM; EC50 (SARS-CoV-2 3CLpro [1]; B) EC50 without Triton X-100): 0.668 ± 0.33 µM; inhibition at 5 µM (SARS-CoV-2 3CLpro [2]; [8]): 91.9%; inhibition at 5 µM (SARS-CoV-2 3CLpro [2]; [9]): 90.5%; inhibition at 5 µM (SARS-CoV-2 3CLpro [2]; [10]): 91.2% |
| O=C(N[C@@H](Cc1ccccc1)C(=O)CCl)OCc1ccccc1 [ZPCK, Z-L-Phe chloromethyl ketone] | 1.7 | 0.234 ± 0.085 µM | 0.136 ± 0.021 µM |  |  |  | EC50 (SARS-CoV-2 3CLpro [1]; [14]): 0.23 µM |
| Oc1ccc(Cn2cc[nH]c2=S)cc1 [1-Hbit] |  | 7.08 ± 5.15 µM | > 20 µM |  |  |  |  |
| O=Nc1ccc2oc(=O)ccc2c1 [6-Nitroso-1,2-benzopyrone, reference compound] | 1.6 | 0.882 ± 0.11 µM | 0.559 ± 0.123 µM | 91.133 | 92.4944 | 89.7716 |  |
| R(−)-Propylnorapomorphine [R(−)-NPA] | 1.0 | 0.426 ± 0.017 µM | 0.426 ± 0.077 µM |  |  |  |  |
| N=C(N)NCCSSCCNC(=N)N [GED] |  | 5.83 ± 0.664 µM | 3.64 ± 2.43 µM |  |  |  | Ratio (A/B) (SARS-CoV-2 3CLpro [1]; [15]): 1.6 |
| O=c1oc(Cl)c(Cl)c2ccccc12 [3,4-Dichloroisocoumarin, reference compound] | 1.6 | 8.7 ± 2.72 µM | 5.38 ± 0.612 µM |  |  |  | inhibition at 5 µM (SARS-CoV-2 3CLpro [2]; [5]): 30.4%; inhibition at 5 µM (SARS-CoV-2 3CLpro [2]; [6]): 30.8%; inhibition at 5 µM (SARS-CoV-2 3CLpro [2]; [7]): 30% |
| O=c1cc(O)cc(/C=C/c2ccc(O)c(O)c2)o1 [Hispidin, reference compound] | 2.8 |  |  |  |  |  | EC50 (SARS-CoV-2 3CLpro [1]; A) EC50 with Triton X-100): 5 ± 0.554 µM; EC50 (SARS-CoV-2 3CLpro [1]; B) EC50 without Triton X-100): 1.81 ± 0.828 µM; inhibition at 5 µM (SARS-CoV-2 3CLpro [2]; [8]): 46.3%; inhibition at 5 µM (SARS-CoV-2 3CLpro [2]; [9]): 38.9%; inhibition at 5 µM (SARS-CoV-2 3CLpro [2]; [10]): 42.6% |
| O=C(O)Cc1ccc(O)c(O)c1 [DOPAC] | 1.3 | 3.09 ± 0.226 µM | 2.46 ± 0.117 µM |  |  |  |  |
| O=C(O)c1cc[c]([Hg][Cl])cc1 [4-Chloromercuribenzoic acid, reference compound] | 0.9 |  | 0.095 ± 0.007 µM | 103.38 | 104.085 | 102.675 | EC50 (SARS-CoV-2 3CLpro [1]; [14]): 0.085 µM |
| COc1ccc2c(c1)CC[C@@H]1[C@@H]2CC[C@]2(C)[C@@H](NCCCCCCN3C(=O)C=CC3=O)CC[C@@H]12 [U-73122, reference compound] |  | 0.694 ± 0.082 µM | 0.35 ± 0.017 µM | 88.5998 | 89.4118 | 87.7878 | Ratio (A/B) (SARS-CoV-2 3CLpro [1]; [15]): 2.0 |
